Measurements: US20180110780A1, “AGENT FOR ALLEVIATING SIDE EFFECT OF ANTITUMOR DRUG” (TAIHO PHARMACEUTICAL CO., LTD., priority 2015, published 2018)

System: BALB/cA Jcl-nu mice transplanted with human lung cancer cell line NCI-H441
Assay: Toxicity alleviating effect against pemetrexed in tumor-bearing mouse
Details: deaths/animals during the test, pemetrexed 50 mg/kg/day, Compound 1 600 mg/kg/day
Procedure: Cells of a human lung cancer cell line, NCI-H441, were suspended in a PBS containing 50% [sequence], and the suspension was transplanted subcutaneously into the right-side chest of each of 8-week old BALB/cA Jcl-nu mice (Crea-Japan, Inc.) in an amount of 5×10^6 cells/0.1 mL/body. At the time when the average tumor volume after grouping became more than 100 mm^3, the major axis and the minor axis of the tumor were measured, and grouping was performed such that there would be no fluctuations in the tumor volumes of the various groups (6 animals per group). Furthermore, the mice were maintained under conditions of low-folic acid feed breeding from the age of 5 weeks to the day of test completion.
Pemetrexed (manufactured by LC Laboratories, Inc.) was dissolved in physiological saline, and the solution was administered through the caudal vein on Day 1, which was the day after the day of grouping, and on Day 8, which was one week thereafter. Furthermore, Compound 1 was suspended in a 0.5% aqueous solution of hydroxypropylmethyl cellulose, and the suspension was orally administered once a day for 14 consecutive days from the day after the day of grouping. […]
After grouping, the body weights (BW) were measured twice a week, and the rate of bodyweight change (bodyweight change; BWC) was calculated by the following formula, the toxicity alleviating effect was evaluated. […]

Nc1nc2[nH]cc(CCc3ccc(C(=O)N[C@@H](CCC(=O)O)C(=O)O)cc3)c2c(=O)[nH]1 [Pemetrexed]
No. of Death: 1/6
No. of Death (listed as pemetrexed): one death case out of six animals
